# Data published in ChEMBL document CHEMBL4270599, “Synthesis of a 3'-C-ethynyl-β-d-ribofuranose purine nucleoside library: Discovery of C7-deazapurine analogs as potent antiproliferative nucleosides” (Eur J Med Chem, 2018).
# Experiments:
# Assay type in all cases: functional
# RPMI-8226 = assay: Cytotoxicity against human RPMI8226 cells after 48 hrs by SRB assay; details: RPMI-8226, 48 h; for CC50: read-out: LC50 (the source's name)
# NCI-H226 [1] = assay: Cytotoxicity against human NCI-H226 cells after 48 hrs by SRB assay; details: NCI-H226, 48 h
# NCI-H23 [2] = assay: Cytotoxicity against human NCI-H23 cells after 48 hrs by SRB assay; details: NCI-H23, 48 h; for CC50: read-out: LC50 (the source's name)
# M14 = assay: Cytotoxicity against human M14 cells after 48 hrs by SRB assay; details: M14, 48 h
# SK-MEL-28 [3] = assay: Cytotoxicity against human SK-MEL-28 cells after 48 hrs by SRB assay; details: SK-MEL-28, 48 h
# IGROV-1 = assay: Cytotoxicity against human IGROV1 cells after 48 hrs by SRB assay; details: IGROV-1, 48 h; for CC50: read-out: LC50 (the source's name)
# A498 = assay: Cytotoxicity against human A498 cells after 48 hrs by SRB assay; details: A498, 48 h
# RXF 393 = assay: Cytotoxicity against human RXF393 cells after 48 hrs by SRB assay; details: RXF 393, 48 h
# BT-549 = assay: Cytotoxicity against human BT549 cells after 48 hrs by SRB assay; details: BT-549, 48 h; for CC50: read-out: pLC50 (the source's name) (converted)
# MDA-MB-468 = assay: Cytotoxicity against human MDA-MB-468 cells after 48 hrs by SRB assay; details: MDA-MB-468, 48 h
# HOP-62 = assay: Growth inhibition of human HOP62 cells assessed as cell growth at 10^-8 M incubated for 48 hrs by sulforhodamine B assay relative to control; details: HOP-62, 48 h, read-out: Activity
# NCI-H23 [4] = assay: Growth inhibition of human NCI-H23 cells assessed as cell growth at 10^-8 M incubated for 48 hrs by sulforhodamine B assay relative to control; details: NCI-H23, 48 h, read-out: Activity
# COLO 205 = assay: Growth inhibition of human COLO205 cells assessed as cell growth at 10^-8 M incubated for 48 hrs by sulforhodamine B assay relative to control; details: COLO 205, 48 h, read-out: Activity
# MDA-MB-435 = assay: Growth inhibition of human MDA-MB-435 cells assessed as cell growth at 10^-8 M incubated for 48 hrs by sulforhodamine B assay relative to control; details: MDA-MB-435, 48 h, read-out: Activity
# OVCAR-5 = assay: Growth inhibition of human OVCAR5 cells assessed as cell growth at 10^-8 M incubated for 48 hrs by sulforhodamine B assay relative to control; details: OVCAR-5, 48 h, read-out: Activity
# PC-3 = assay: Growth inhibition of human PC3 cells assessed as cell growth at 10^-8 M incubated for 48 hrs by sulforhodamine B assay relative to control; details: PC-3, 48 h, read-out: Activity
# NCI-H522 = assay: Growth inhibition of human NCI-H522 cells assessed as cell growth at 10^-7 M incubated for 48 hrs by sulforhodamine B assay relative to control; details: NCI-H522, 48 h, read-out: Activity
# HCC 2998 = assay: Growth inhibition of human HCC2998 cells assessed as cell growth at 10^-7 M incubated for 48 hrs by sulforhodamine B assay relative to control; details: HCC 2998, 48 h, read-out: Activity
# SNB-75 = assay: Growth inhibition of human SNB75 cells assessed as cell growth at 10^-7 M incubated for 48 hrs by sulforhodamine B assay relative to control; details: SNB-75, 48 h, read-out: Activity
# LOX IMVI = assay: Growth inhibition of human LOXIMVI cells assessed as cell growth at 10^-7 M incubated for 48 hrs by sulforhodamine B assay relative to control; details: read-out: Activity
# Malme-3M = assay: Growth inhibition of human MALME-3M cells assessed as cell growth at 10^-7 M incubated for 48 hrs by sulforhodamine B assay relative to control; details: read-out: Activity
# NCI/ADR-RES = assay: Growth inhibition of human NCI/ADR-RES cells assessed as cell growth at 10^-7 M incubated for 48 hrs by sulforhodamine B assay relative to control; details: read-out: Activity
# MCF7 [5] = assay: Growth inhibition of human MCF7 cells assessed as cell growth at 10^-7 M incubated for 48 hrs by sulforhodamine B assay relative to control; details: MCF7, 48 h, read-out: Activity
# SR = assay: Growth inhibition of human SR cells assessed as cell growth at 10^-6 M incubated for 48 hrs by sulforhodamine B assay relative to control; details: read-out: Activity
# NCI-H226 [6] = assay: Growth inhibition of human NCI-H226 cells assessed as cell growth at 10^-6 M incubated for 48 hrs by sulforhodamine B assay relative to control; details: NCI-H226, 48 h, read-out: Activity
# NCI-H460 = assay: Growth inhibition of human NCI-H460 cells assessed as cell growth at 10^-6 M incubated for 48 hrs by sulforhodamine B assay relative to control; details: NCI-H460, 48 h, read-out: Activity
# MCF7 [7] = assay: Growth inhibition of human MCF7 cells assessed as cell growth at 10^-6 M incubated for 48 hrs by sulforhodamine B assay relative to control; details: MCF7, 48 h, read-out: Activity
# Hs-578T = assay: Growth inhibition of human Hs 578T cells assessed as cell growth at 10^-6 M incubated for 48 hrs by sulforhodamine B assay relative to control; details: read-out: Activity
# MCF7 [8] = assay: Growth inhibition of human MCF7 cells assessed as cell growth at 10^-5 M incubated for 48 hrs by sulforhodamine B assay relative to control; details: MCF7, 48 h, read-out: Activity
# SK-MEL-28 [9] = assay: Growth inhibition of human SK-MEL-28 cells assessed as cell growth at 10^-5 M incubated for 48 hrs by sulforhodamine B assay relative to control; details: SK-MEL-28, 48 h, read-out: Activity
# TK-10 = assay: Growth inhibition of human TK10 cells assessed as cell growth at 10^-5 M incubated for 48 hrs by sulforhodamine B assay relative to control; details: TK-10, 48 h, read-out: Activity
# [10] = read-out: LC50 (the source's name)
# [11] = read-out: pLC50 (the source's name) (converted)
smiles,measurement,setting,value
C#C[C@@]1(O)[C@@H](CO)O[C@@H](n2cc(I)c3c(N)ncnc32)[C@@H]1O,GI50,RPMI-8226; read-out: GI50,0.275 to 0.428 µM
same,CC50,RPMI-8226,91.5 to 100 µM
same,TGI,RPMI-8226; read-out: TGI,4.57 to 6.65 µM
same,GI50,NCI-H226 [1]; read-out: GI50,1.35 to 2.18 µM
same,CC50,NCI-H226 [1]; [10],> 100 µM
same,TGI,NCI-H226 [1]; read-out: TGI,> 100 µM
same,TGI,NCI-H226 [1]; read-out: pTGI (converted),> 100 µM
same,GI50,NCI-H23 [2]; read-out: GI50,0.271 to 0.395 µM
same,CC50,NCI-H23 [2],> 100 µM
same,TGI,NCI-H23 [2]; read-out: TGI,4.31 to 9.72 µM
same,GI50,M14; read-out: GI50,0.393 to 0.611 µM
same,CC50,M14; [10],55.5 to 100 µM
same,TGI,M14; read-out: TGI,8.47 to 10.7 µM
same,GI50,SK-MEL-28 [3]; read-out: GI50,1.56 to 2.46 µM
same,TGI,SK-MEL-28 [3]; read-out: TGI,9.27 to 14 µM
same,CC50,SK-MEL-28 [3]; [11],> 100 µM
same,CC50,IGROV-1,> 100 µM
same,GI50,A498; read-out: GI50,0.211 to 0.453 µM
same,CC50,A498; [10],4.69 to 6.4 µM
same,TGI,A498; read-out: TGI,1.03 to 1.98 µM
same,GI50,RXF 393; read-out: GI50,0.418 to 0.463 µM
same,CC50,RXF 393; [10],7.84 to 100 µM
same,TGI,RXF 393; read-out: TGI,2.01 to 2.54 µM
same,GI50,BT-549; read-out: GI50,0.175 to 0.384 µM
same,TGI,BT-549; read-out: TGI,3.26 to 4.94 µM
same,CC50,BT-549,> 100 µM
same,GI50,MDA-MB-468; read-out: GI50,0.147 to 0.158 µM
same,CC50,MDA-MB-468; [10],5.51 to 5.65 µM
same,TGI,MDA-MB-468; read-out: TGI,0.421 to 0.746 µM
same,growth at 0.01 µM,HOP-62,83 to 89%
same,growth at 0.01 µM,NCI-H23 [4],87 to 91%
same,growth at 0.01 µM,COLO 205,79 to 98%
same,growth at 0.01 µM,MDA-MB-435,83 to 93%
same,growth at 0.01 µM,OVCAR-5,79 to 80%
same,growth at 0.01 µM,PC-3,81 to 84%
same,growth at 0.1 µM,NCI-H522,42 to 64%
same,growth at 0.1 µM,HCC 2998,70 to 75%
same,growth at 0.1 µM,SNB-75,81 to 83%
same,growth at 0.1 µM,LOX IMVI,27 to 46%
same,growth at 0.1 µM,Malme-3M,78 to 99%
same,growth at 0.1 µM,NCI/ADR-RES,41 to 47%
same,growth at 0.1 µM,MCF7 [5],18 to 25%
same,growth at 1 µM,SR,21 to 24%
same,growth at 1 µM,NCI-H226 [6],57 to 70%
same,growth at 1 µM,NCI-H460,6 to 9%
same,growth at 1 µM,MCF7 [7],1 to 6%
same,growth at 1 µM,Hs-578T,38 to 53%
same,growth at 10 µM,MCF7 [8],1 to 5%
C#C[C@@]1(O)[C@@H](CO)O[C@@H](n2ccc3c(N)ncnc32)[C@@H]1O,CC50,RPMI-8226,> 100 µM
same,TGI,RPMI-8226; read-out: TGI,> 100 µM
same,GI50,RPMI-8226; read-out: pGI50 (converted),0.776 µM
same,TGI,RPMI-8226; read-out: pTGI (converted),> 100 µM
same,TGI,NCI-H226 [1]; read-out: TGI,4.85 µM
same,GI50,NCI-H226 [1]; read-out: pGI50 (converted),2.04 µM
same,CC50,NCI-H226 [1]; [11],26.3 µM
same,TGI,NCI-H226 [1]; read-out: pTGI (converted),4.9 µM
same,CC50,NCI-H23 [2],> 100 µM
same,TGI,NCI-H23 [2]; read-out: TGI,4.32 µM
same,GI50,NCI-H23 [2]; read-out: pGI50 (converted),1.17 µM
same,TGI,NCI-H23 [2]; read-out: pTGI (converted),4.37 µM
same,TGI,M14; read-out: TGI,3 µM
same,GI50,M14; read-out: pGI50 (converted),1.41 µM
same,CC50,M14; [11],6.31 µM
same,TGI,M14; read-out: pTGI (converted),3.02 µM
same,CC50,SK-MEL-28 [3]; [10],> 100 µM
same,TGI,SK-MEL-28 [3]; read-out: TGI,20.2 µM
same,GI50,SK-MEL-28 [3]; read-out: pGI50 (converted),3.98 µM
same,TGI,SK-MEL-28 [3]; read-out: pTGI (converted),20 µM
same,CC50,IGROV-1,> 100 µM
same,TGI,IGROV-1; read-out: TGI,5.85 µM
same,GI50,IGROV-1; read-out: pGI50 (converted),1.45 µM
same,TGI,IGROV-1; read-out: pTGI (converted),5.89 µM
same,TGI,A498; read-out: TGI,3.74 µM
same,GI50,A498; read-out: pGI50 (converted),1.66 µM
same,TGI,A498; read-out: pTGI (converted),3.72 µM
same,TGI,RXF 393; read-out: TGI,4.6 µM
same,GI50,RXF 393; read-out: pGI50 (converted),1.91 µM
same,CC50,RXF 393; [11],12.9 µM
same,TGI,RXF 393; read-out: pTGI (converted),4.57 µM
same,TGI,BT-549; read-out: TGI,3.64 µM
same,GI50,BT-549; read-out: pGI50 (converted),1.62 µM
same,CC50,BT-549,8.13 µM
same,TGI,BT-549; read-out: pTGI (converted),3.63 µM
same,TGI,MDA-MB-468; read-out: TGI,3.33 µM
same,GI50,MDA-MB-468; read-out: pGI50 (converted),1.29 µM
same,CC50,MDA-MB-468; [11],8.51 µM
same,TGI,MDA-MB-468; read-out: pTGI (converted),3.31 µM
same,growth at 0.01 µM,HOP-62,87%
same,growth at 0.01 µM,NCI-H23 [4],95%
same,growth at 0.01 µM,COLO 205,95%
same,growth at 0.01 µM,MDA-MB-435,92%
same,growth at 0.01 µM,OVCAR-5,87%
same,growth at 0.01 µM,PC-3,97%
same,growth at 0.1 µM,NCI-H522,78%
same,growth at 0.1 µM,HCC 2998,93%
same,growth at 0.1 µM,SNB-75,95%
same,growth at 0.1 µM,LOX IMVI,99%
same,growth at 0.1 µM,Malme-3M,97%
same,growth at 0.1 µM,NCI/ADR-RES,92%
same,growth at 0.1 µM,MCF7 [5],73%
same,growth at 1 µM,SR,46%
same,growth at 1 µM,NCI-H226 [6],92%
same,growth at 1 µM,NCI-H460,30%
same,growth at 1 µM,MCF7 [7],13%
same,growth at 1 µM,Hs-578T,114%
same,growth at 10 µM,SK-MEL-28 [9],21%
same,growth at 10 µM,TK-10,-2%
same,growth at 10 µM,MCF7 [8],-4%
